Tests used:
[1] = tested on: human cell line G292; test: Fixing of calcium by the osteoblast cell line G292; type: cell-based; set-up: Fixed calcium, Average: unit not given here; conditions: for Fixing the calcium (fixed calcium): G292, Example I, controls = 1,000
Procedure: (§1) More precisely, the process according to the invention consists of preparing a suspension of a human or animal osseous cell line, by adjusting the cellular density determined by turbidimetry or by calculating from a reference value, leaving to incubate for one to three days at 37° C. in the presence of carbon dioxide and of a complete culture medium (CCM), adding to some wells an agent inhibiting the fixing of calcium or a calciotropic hormone, and some extract to be titrated, eliminating the supernatants from the culture, rinsing out the wells with a rinsing medium without calcium or magnesium (P.B.S. for example) in such a way as to eliminate the non-fixed calcium from the culture medium, eliminating the supernatant fractions, and adjusting the volume of the dispersion with a fixed volume of mineral acid such as hydrochloric acid, sulphuric acid, phosphoric acid or perchloric acid or with any other product capable of destroying the extracellular matrix built up by the cells being cultured. […] NT-690.005.
(§2) The material to be tested is dosed on a cell culture. An analysis is carried out of the calcium fixed by the osseous cells. To do this, the calcium fixed by an osteoblastic cell line is dosed. In a non-limiting way, UMR 106 and G292, in the presence or not of deleterious agents such as the Inh-Ca and the IL-1 may be cited. The preparation to be analysed will also itself be tested, on the same cell line in the presence or not of agents such as Inh-Ca and IL-1.
In these same conditions, calcium fixed by the same cell line in the presence of estradiol is dosed and a calibration scale is produced, expressed in weight of estradiol This calibration scale ranges from 10^−3 to 10^−10 mol of estradiol or more frequently between 10^−7 and 10^−9 mol of estradiol. In this way, it is possible to establish a correlation between the activity of the extract of Padina and an active quantity of estradiol. We should stress that this comparison is made between the activity of estradiol directly on the cell culture with the active extract of Padina in the presence of deleterious agents such as an Inh-Ca or IL-1. So it is not a true weight comparison and it is proposed that the result should be expressed in Units of Activity (UA). A unit of activity is defined as the quantity of extract capable of increasing by 50% the quantity of calcium fixed by 400,000 cells cultivated for 48 hours in the presence of 1 ng of interleukin 1 per 1 ml well. The IL-1 can be replaced by another agent inhibiting the fixing of calcium at an equi-active dose.
The extracts of Padina have been described, in particular in the European patent application EP 0.655.250. The algae is then depleted after drying, by a hydrocarbonated solvent such as cyclohexane or acetone, the vegetable matter is separated, and the extracted product is filtered then evaporated until dry. A quantity of dry extract weighed precisely is then dissolved in ethanol. Determining its activity is the object of the present invention. In concrete terms, the process according to the invention consists of preparing a suspension of culture of the human cell line G292 (ECAC no. 901-110522), adjusting the cell density to 400,000 cells per ml of complete culture medium (CCM), supplemented by 10% of fetal calf serum. The cell suspension is distributed at the rate of 1 ml per well on plates of 24 wells. It is left to incubate overnight in an atmosphere of CO2 at 37°. The supernatants are separated then dilution is carried out by a new addition of CCM. An aliquot fraction of IL-1 is prepared and 5 μl of interleukin IL1 solution is added, namely 1 ng per well in the wells for the cells which receive only one inhibiting treatment per IL-1.
(§3) For each trial of solution to be titrated, 5 μl of solution of Padina extract is added. It is then left to incubate for the length of time necessary to carry out the trial, normally between 24 and 72 hours, and preferably 48 hours. […]

[2] = tested on: Osteoblasts; test: Fixing of calcium by osteoblasts (Example I); type: cell-based
Procedure: as §1
The extracts or powders of the algae Padina pavonica have the effect of stimulating biological activity (synthesis of proteins and glycoaminoglycanes) but also act to restore physiological functions such as the fixing of calcium by osteogenic cells. For this, the fixed calcium is dosed with a fixed cell line, such as for example the cell line UMR 106 or the line G 292, in the presence or not of deleterious agents such as inhibitors of the calcic canals and pro-inflammatory agents such as IL 1. Normal osteoblasts give good results, but their availability presents a problem. The preparation to be analysed is tested in parallel on the same cell line, in the presence or not of these same deleterious agents. The quantity of fixed calcium in relation to that obtained with the calciotropic agent and with those obtained in the presence of agents inhibiting the fixing of calcium are compared.
as §2, §3

[3] = calcic inhibitor alone, 10 μg, control 1.194
[4] = agent in the presence of IL-1, controls = 1,000

Row | Structure (SMILES) | Fixed calcium, Average [1, 3] | Fixing the calcium (fixed calcium) ([2]; agent alone, controls = 1,000) | Fixing the calcium (fixed calcium) [2, 4] | Fixing the calcium (fixed calcium) ([1]; agent alone) | Fixing the calcium (fixed calcium) ([1]; agent in the presence of IL-1) | Fixed calcium, Average ([1]; Estradiol 10^−7 alone, control 1.194) | Fixed calcium, Average ([1]; Estradiol 10^−8 alone, control 1.194) | Fixed calcium, Average ([1]; Estradiol 10^−9 alone, control 1.194) | Fixed calcium, Average ([1]; Estradiol + Cinchonine, control 1.194, Cinchonine 0.059) | Fixed calcium, Average ([1]; Estradiol + IL-1, control 1.194, IL-1 0.315) | Fixed calcium, Average ([1]; Estradiol + Verapamil, control 1.194, Verap 0.383)
1 | C=C[C@H]1C[N@@]2CC[C@H]1C[C@@H]2[C@@H](O)c1ccnc2ccccc12 [Cinchonine] | 0.059 |  |  |  |  |  |  |  |  |  | 
2 | C=C1CC[C@H](O)C/C1=C/C=C1\CCC[C@]2(C)[C@@H]([C@H](C)CCCC(C)C)CC[C@@H]12 [D3, Vitamin D3] |  | 1,215 | 0,125 | 1,540 | 0,070 |  |  |  |  |  | 
3 | C[C@]12CC[C@@H]3c4ccc(O)cc4CC[C@H]3[C@@H]1CC[C@@H]2O [Est, Estradiol] |  | 1,843 | 0,200 | 2,648 | 0,070 | 1.151 | 1.115 | 0.706 | 0.357 | 0.357 | 0.373
4 | COc1ccc(CCN(C)CCCC(C#N)(c2ccc(OC)c(OC)c2)C(C)C)cc1OC (stereo not shown) [Verap, Verapamil] | 0.383 |  |  |  |  |  |  |  |  |  | 

From patent US7122337B2, “Method for determining calciotropic activity of a preparation of Padina pavonic algae” (Texinfine SA, priority 2001, dated 2006)
